Earlier results in patent EP0721734A1, “PESTICIDE COMPOSITION” (NIPPON SODA CO., LTD., priority 1993, dated 1995).

Q: Which water solubility does the source give for `CCCC(Cn1cncn1)c1ccc(Cl)cc1Cl` (stereo not drawn) [Penconasole] here?
A: 70 ppm

Q: Which water solubility does the source give for `CCc1cccc(C)c1N(C(=O)CCl)C(C)COC` (stereo not drawn) [Metolachlor] here?
A: 530 ppm

Q: For `CCN(Cc1ccc(Cl)nc1)C(=C[N+](=O)[O-])NC` [2-methylamino-2-[N-ethyl-(2-chloro-5-pyridyl)methylamino]-nitoroethylene], which water solubility is on record?
A: up to 600 g/l

Q: With `CCO[PH](=O)[O-].CCO[PH](=O)[O-].CCO[PH](=O)[O-].[Al+3]` [Phosethyl-Alminium] as the compound, how does the water solubility read?
A: 120 g/L

Q: With `CC(=NC#N)N(C)Cc1ccc(Cl)nc1` [active substance-1, N^1-[(2-chloro-5-pyridyl)methyl]-N^2-cyano-N^1-methylacetamidine] as the compound, how does the water solubility read?
A: 3,700 ppm

Q: For `CCSCc1ccccc1OC(=O)NC` [Ethiophencalb], which water solubility is on record?
A: 1,900 ppm
